Assay results reported in ChEMBL document CHEMBL1156135 (Bioorg Med Chem Lett, 2009).

Experiments:
A-375 = assay: Antiproliferative activity against human A375 cells expressing b-Raf V600E mutant; type: functional, cell-based
[1] = Antiproliferative activity against human WM266.4 cells expressing b-Raf V600E mutant; type: functional, cell-based; settings: WM 266-4
[2] = biological target: Serine/threonine-protein kinase B-raf (Homo sapiens, UniProt P15056); assay: Inhibition of B-Raf
[3] = Therapeutic index, ratio of IC50 for human Caco-2 cells expressing wild type b-Raf to IC50 for human A375 cells expressing b-Raf V600E mutant; type: cell-based; settings: read-out: Ratio IC50
[4] = Therapeutic index, ratio of IC50 for human Caco-2 cells expressing wild type b-Raf to IC50 for human WM266.4 cells expressing b-Raf V600E mutant; type: cell-based; settings: read-out: Ratio IC50
[5] = Selectivity for B-raf over p38alpha
Caco-2 = assay: Antiproliferative activity against human Caco-2 cells expressing wild type b-Raf; type: functional, cell-based

Serine/threonine-protein kinase B-raf, sequence (P15056 whole entry): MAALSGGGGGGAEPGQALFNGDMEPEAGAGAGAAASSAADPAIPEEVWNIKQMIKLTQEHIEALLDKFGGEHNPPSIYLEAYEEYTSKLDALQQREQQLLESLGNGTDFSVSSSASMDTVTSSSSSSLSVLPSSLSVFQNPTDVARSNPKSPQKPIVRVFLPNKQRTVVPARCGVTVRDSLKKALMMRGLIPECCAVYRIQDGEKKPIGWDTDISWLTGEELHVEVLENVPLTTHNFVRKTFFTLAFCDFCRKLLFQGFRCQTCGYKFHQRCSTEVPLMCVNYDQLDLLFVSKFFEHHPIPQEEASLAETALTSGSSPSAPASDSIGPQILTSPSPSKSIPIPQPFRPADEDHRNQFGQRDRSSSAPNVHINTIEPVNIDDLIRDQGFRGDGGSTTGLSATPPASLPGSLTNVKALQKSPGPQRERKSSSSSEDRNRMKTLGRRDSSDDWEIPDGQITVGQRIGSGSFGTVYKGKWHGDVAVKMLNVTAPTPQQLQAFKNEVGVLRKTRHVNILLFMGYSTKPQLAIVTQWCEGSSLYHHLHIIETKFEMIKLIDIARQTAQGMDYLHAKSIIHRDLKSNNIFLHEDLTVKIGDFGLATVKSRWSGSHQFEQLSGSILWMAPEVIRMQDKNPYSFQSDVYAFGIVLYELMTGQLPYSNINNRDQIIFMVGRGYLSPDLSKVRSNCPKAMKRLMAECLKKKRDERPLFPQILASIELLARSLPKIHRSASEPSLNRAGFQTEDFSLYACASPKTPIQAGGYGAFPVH

| Structure (SMILES) | IC50 (A-375) | IC50 [1] | IC50 [2] | further results |
| --- | --- | --- | --- | --- |
| CCOC(=O)N1C2CCC1CC(c1ccnc3c(-c4ccc(C)c5[nH]ncc45)c(-c4ccncc4)nn13)C2 (stereo unspecified) | 1000 nM | 670 nM | – | – |
| CCOC(=O)N1C2CCC1CC(c1ccnc3c(-c4cccc5[nH]ccc45)c(-c4ccncc4)nn13)C2 (stereo unspecified) | – | – | > 1000 nM | – |
| CCN1C2CCC1CC(c1ccnc3c(-c4ccc(C)c5[nH]ncc45)c(-c4ccncc4)nn13)C2 (stereo unspecified) | 1600 nM | 840 nM | – | – |
| COc1cccc(-c2c(-c3ccncc3)nn3c(C4CC5CCC(C4)N5)ccnc23)c1 (stereo unspecified) | 6400 nM | 8400 nM | – | – |
| CCOC(=O)N1C2CCC1CC(c1ccnc3c(-c4cccc(O)c4)c(-c4ccncc4)nn13)C2 (stereo unspecified) | – | 240 nM | – | – |
| O=C(O)[C@H]1CCCN1C(=O)N1C2CCC1CC(c1ccnc3c(-c4cccc5[nH]ncc45)c(-c4ccncc4)nn13)C2 (stereo partly specified) | 5940 nM | 1860 nM | 2.1 nM | – |
| CCOC(=O)N1C2CCC1CC(c1ccnc3c(-c4ccc(F)c5[nH]ncc45)c(-c4ccncc4)nn13)C2 (stereo unspecified) | 620 nM | 300 nM | – | selectivity ratio [3]: 5.8; selectivity ratio [4]: 12; Ratio [5]: 19 |
| CCOC(=O)N1C2CCC1CC(c1ccnc3c(-c4cccc5[nH]c(=O)[nH]c45)c(-c4ccncc4)nn13)C2 (stereo unspecified) | – | – | > 1000 nM | – |
| CN(C)C(=O)N1C2CCC1CC(c1ccnc3c(-c4cccc5[nH]ncc45)c(-c4ccncc4)nn13)C2 (stereo unspecified) | 3000 nM | 2140 nM | – | – |
| CCN1C2CCC1CC(c1ccnc3c(-c4ccc(C#N)c(O)c4)c(-c4ccncc4)nn13)C2 (stereo unspecified) | > 10000 nM | > 10000 nM | – | – |
| CC(=O)N1C2CCC1CC(c1ccnc3c(-c4ccc(Cl)c(O)c4)c(-c4ccncc4)nn13)C2 (stereo unspecified) | 900 nM | 260 nM | – | – |
| CCOC(=O)N1C2CCC1CC(c1ccnc3c(-c4ccc(F)c(F)c4)c(-c4ccncc4)nn13)C2 (stereo unspecified) | – | – | 302 nM | – |
| CCOC(=O)N1C2CCC1CC(c1ccnc3c(-c4ccc(C(F)(F)F)c5[nH]ncc45)c(-c4ccncc4)nn13)C2 (stereo unspecified) | 2500 nM | 2300 nM | 4.4 nM | – |
| CN1C2CC(CO)C1Cc1cnc3c(-c4ccc(Cl)c(O)c4)c(-c4ccncc4)nn3c12 (stereo unspecified) | 1700 nM | 750 nM | 0.6 nM | – |
| COC(=O)C1CC2c3c(cnc4c(-c5ccc(Cl)c(O)c5)c(-c5ccncc5)nn34)CC1N2C (stereo unspecified) | 2300 nM | 1100 nM | 1.6 nM | – |
| CCNC(=O)N1C2CCC1CC(c1ccnc3c(-c4cccc5[nH]ncc45)c(-c4ccncc4)nn13)C2 (stereo unspecified) | 2810 nM | 1520 nM | – | – |
| CCN1C2CCC1CC(c1ccnc3c(-c4ccc(Cl)c(O)c4)c(-c4ccncc4)nn13)C2 (stereo unspecified) | 320 nM | 230 nM | 0.5 nM | – |
| CCN1C2CCC1CC(c1ccnc3c(-c4ccc(Cl)c(OC)c4)c(-c4ccncc4)nn13)C2 (stereo unspecified) | 2200 nM | 5600 nM | – | – |
| CCN1C2CCC1CC(c1ccnc3c(-c4ccc(F)c(O)c4)c(-c4ccncc4)nn13)C2 (stereo unspecified) | 760 nM | 450 nM | – | – |
| Oc1cc(-c2c(-c3ccncc3)nn3c(C4CC5CCC(C4)N5)ccnc23)ccc1Cl (stereo unspecified) | 440 nM | 90 nM | – | – |
| OCCN1C2CCC1CC(c1ccnc3c(-c4cccc5[nH]ncc45)c(-c4ccncc4)nn13)C2 (stereo unspecified) | 3440 nM | 1370 nM | – | – |

| Structure (SMILES) | IC50 (A-375) | IC50 [1] | IC50 [2] | further results |
| --- | --- | --- | --- | --- |
| CS(=O)(=O)C1C2CCC1CC(c1ccnc3c(-c4ccc(Cl)c(O)c4)c(-c4ccncc4)nn13)C2 (stereo unspecified) | 270 nM | 90 nM | < 2 nM | – |
| CC(=O)N1C2CCC1CC(c1ccnc3c(-c4cccc5[nH]ncc45)c(-c4ccncc4)nn13)C2 (stereo unspecified) | 2540 nM | 1800 nM | – | – |
| CCN1C2CCC1CC(c1ccnc3c(-c4cccc5[nH]ncc45)c(-c4ccncc4)nn13)C2 (stereo unspecified) | 2900 nM | 2400 nM | 46.6 nM | – |
| CCN1C2CCC1CC(c1ccnc3c(-c4ccc(C(F)(F)F)c5[nH]ncc45)c(-c4ccncc4)nn13)C2 (stereo unspecified) | 1700 nM | 2900 nM | 45 nM | – |
| CCOC(=O)N1C2CCC1CC(c1ccnc3c(-c4cccc(OC)c4)c(-c4ccncc4)nn13)C2 (stereo unspecified) | 9000 nM | 8000 nM | – | – |
| CN1C2CC(S(=O)(=O)c3ccccc3)C1Cc1cnc3c(-c4ccc(Cl)c(O)c4)c(-c4ccncc4)nn3c12 (stereo unspecified) | 1000 nM | 600 nM | 0.8 nM | – |
| CCN1C2CCC1CC(c1ccnc3c(-c4ccc(Cl)c5[nH]ncc45)c(-c4ccncc4)nn13)C2 (stereo unspecified) | 1090 nM | 860 nM | 4.4 nM | – |
| CCOC(=O)N1C2CCC1CC(c1ccnc3c(-c4ccc(Cl)c(O)c4)c(-c4ccncc4)nn13)C2 (stereo unspecified) | – | 120 nM | < 2 nM | – |
| CS(=O)(=O)N1C2CCC1CC(c1ccnc3c(-c4cccc5[nH]ncc45)c(-c4ccncc4)nn13)C2 (stereo unspecified) | 950 nM | 570 nM | – | – |
| CCOC(=O)N1C2CCC1CC(c1ccnc3c(-c4ccc5cc[nH]c5c4)c(-c4ccncc4)nn13)C2 (stereo unspecified) | 7500 nM | > 10000 nM | – | – |
| COc1cc(-c2c(-c3ccncc3)nn3c(C4CC5CCC(C4)N5)ccnc23)ccc1Cl (stereo unspecified) | 2600 nM | 3500 nM | 8.5 nM | – |
| CCOC(=O)N1C2CCC1CC(c1ccnc3c(-c4ccc(Cl)c5[nH]ncc45)c(-c4ccncc4)nn13)C2 (stereo unspecified) | 580 nM | 280 nM | 0.4 nM | selectivity ratio [3]: 9.4; selectivity ratio [4]: 19.3 |
| CCOC(=O)N1C2CCC1CC(c1ccnc3c(-c4ccc(-c5nnco5)cc4)c(-c4ccncc4)nn13)C2 (stereo unspecified) | – | – | 151 nM | – |
| CCOC(=O)N1C2CCC1CC(c1ccnc3c(-c4ccc5c(c4)NC(=O)C5)c(-c4ccncc4)nn13)C2 (stereo unspecified) | – | – | > 1000 nM | – |
| CCOC(=O)N1C2CCC1CC(c1ccnc3c(-c4ccc(Cl)c(OC)c4)c(-c4ccncc4)nn13)C2 (stereo unspecified) | – | > 10000 nM | – | – |
| CCOC(=O)N1C2CCC1CC(c1ccnc3c(-c4cccc5[nH]ncc45)c(-c4ccncc4)nn13)C2 (stereo unspecified) | 380 nM | 300 nM | – | selectivity ratio [3]: 2.1; selectivity ratio [4]: 2.7; IC50 (Caco-2): 800 nM |
| Oc1cccc(-c2c(-c3ccncc3)nn3c(C4CC5CCC(C4)N5)ccnc23)c1 (stereo unspecified) | 2250 nM | 220 nM | – | – |
| CCOC(=O)N1C2CCC1CC(c1ccnc3c(-c4ccc(C)c(O)c4)c(-c4ccncc4)nn13)C2 (stereo unspecified) | 570 nM | 230 nM | – | – |
| CC(C)N1C2CCC1CC(c1ccnc3c(-c4cccc5[nH]ncc45)c(-c4ccncc4)nn13)C2 (stereo unspecified) | 1960 nM | 1750 nM | – | – |
| CCOC(=O)N1C2CCC1CC(c1c(C)cnc3c(-c4cccc5[nH]ncc45)c(-c4ccncc4)nn13)C2 (stereo unspecified) | 1220 nM | 1870 nM | 8.4 nM | – |
